Laboratory results as given in patent US20230047208A1, “RNA Splicing Modulation” (The General Hospital Corporation, priority 2020, published 2023).

Experiments:
[1] = tested on: PARP6 minigene, Exon X; assay: PARP6 minigene splicing assay, RT-PCR; type: cell-based; conditions: mutated PARP6
Source text: FIGS. 3E-3G Upper row: The length of the exon triplets cloned into minigenes constructs are shown. The flanking sequences of the 5′ splice sites of Exon X are shown in LOGO plots. The height of each nucleotide was estimated using in silico saturated mutagenesis, with the corresponding closely matched CNN Motifs indicated below the plots. […] Middle row: Splicing changes for Exon X in both wildtype and mutated exon triplets, predicted by the CNN model (left) and measured by RT-PCR of the minigene (right). The RT-PCR experiments were performed in duplicate and independently repeated three times for each minigene to make the bar plots (two-tailed, unpaired Student's t test). Bottom row: Example of splicing changes induced by treatment with Compound (I) in the minigene splicing assays. The percentage for Exon X inclusion is indicated beneath each lane, from treated and untreated conditions in both wildtype and mutated minigenes. […] The statistical significance, as shown in FIGS. 3E-3G, was determined via two-tailed, unpaired Student's test: *p<0.05; **p<0.01; ***p<0.001. […]
Wild-type and mutant double-stranded DNA (dsDNA) fragments, selected based on low nucleotide length and exon-skipping probability, were ordered through GENEWIZ (FragmentGENE). […] Concentrations were determined using a nanodrop spectrometer.

[2] = tested on: CFTR channel; assay: CFTR functional assessment, short circuit current (Ussing chamber) in CFBE cells stably expressing c.2988G>A; type: cell-based, human
Source text: WT CFTR-EMG-i14-i18, CFTR-EMG-i14-i18 harboring c.2988G>A, Flp-In-CFBE, and Flp-In-293 cells stably expressing WT-EMG and c.2988G>A EMG were generated. Both Flpin-293 and Flp-In-CFBE cells lack endogenous CFTR expression (CFBE41o-) and contain a single Flp recombinase target site. Co-transfection of EMG plasmid with pOG44 (a plasmid encoding Flp recombinase) allowed for genomic integration at the FRT site. Hygromycin was used for stable cell selection.
Assessment of CFTR channel function and response to Compound (I) was performed in CFBEs stably expressing c.2988G>A. Briefly, CFBE stable cell lines were plated on snapwell filters. When transepithelial resistance reached ˜200Ω (˜ 5-7 days) as measured using Voltammeter (Physiologic Instruments), cells were treated with Compound (I) at varying doses (0.3 μM to 10 μM) for next 3 days. Filters were mounted in Ussing chambers (Physiological Instruments). A high chloride solution was added to the basolateral chamber and a low chloride solution was added to the apical chamber. After equilibration of currents, 10 μM forskolin (Selleckchem) was added to the basolateral side to activate CFTR channels via cAMP signaling. Currents were allowed to plateau, followed by acute addition of 10 μM ivacaftor at apical side for CFTR potentiation (Selleckchem). Inhibition of CFTR was performed using 10 μM Inh-172 (Selleckchem) added to the apical chamber.
The ability of Compound (I) to rescue chloride channel function was also assessed. CF bronchial epithelial (CFBE) cell lines was generated to stably express the splicing mutation c.2988G>A. Cells were grown in monolayers on filters and treated with increasing doses of Compound (I) (0.3 μM-10 μM) or DMSO for 3 days. Chloride channel function was assessed by measuring short circuit current (Isc) on treated CFBE cells. Forskolin was added to initiate CFTR channel activity via cAMP-mediated signaling, with further channel activation by Ivacaftor and inhibition with Inh-172, a CFTR-specific inhibitor (FIG. 9C, representative Isc tracing). CFTR-specific change in current (ΔIsc±SD) allows for measurement of chloride channel function (FIG. 9C). […] Significant recovery of CFTR function (˜3 fold) was observed following treatment with Compound (I) at 1, 3, 6, and 10 μM for 3 days, with a maximal increase in CFTR function achieved using 3 μM of Compound (I) (ΔIsc=37.168±4.32 μA/cm^2, FIG. 9C).

Question: Which “Exon X splicing response confirmed by RT-PCR” value [1] does the source give for `Clc1nc(NCc2ccncc2)c2cc[nH]c2n1` [Compound (I), 2-chloro-N-(pyridin-4-ylmethyl)-7H-pyrrolo[2,3-d]pyrimidin-4-amine] here?
Answer: The value was “inclusion”.

Question: And the “CFTR-specific change in current ΔIsc (±SD)” value ([2]; CFBE c.2988G>A, 3 μM, 3 days (maximal increase))?
Answer: Its value is 37.168±4.32 μA/cm^2.

Question: And the “recovery of CFTR function” value ([2]; CFBE c.2988G>A, 1, 3, 6 and 10 μM, 3 days, versus DMSO)?
Answer: Its value is about 3 fold.

Question: What about the chloride channel function ([2]; CFBE c.2988G>A, Compound (I) in combination with Ivacaftor) of the same compound?
Answer: Its chloride channel function is ~30 % of WT.

Question: And the chloride channel function ([2]; CFBE c.2988G>A, Compound (I) treatment alone)?
Answer: The chloride channel function was ~20 % of WT.
